Read-outs that look alike come from different tables or passages of the source.
Tests used:
ERK1 = ERK1 (Homo sapiens, UniProt P27361); assay: Isothermal titration calorimetry (ITC) assay; type: binding; conditions: 25 °C
Protocol: (§1) The full-length human ERK1 or ERK2 with His-tag was cloned into a pET28a vector. hERK1/2 were expressed in Escherichia coli BL21(DE3), and then were purified using sequential Ni-NTA and Superdex 200 column steps. The SEC purified sample was then concentrated to 10 mg/ml and stored at −80 °C with buffer containing 20 mM HEPES pH 7.5, 150 mM NaCl. ERK5 (residues 48–395) containing His and GST tags was cloned into the pFastBac vector, and the recombinant plasmid was extracted. The recombinant plasmid was transformed into the DH10bac strain, and monoclonal was selected for culture. The recombinant Bacmid was then extracted according to the instructions of the Baculovirus Shuttle Vector Bacmid Mini Preparation Kit (Beyotime) and validated by PCR. 1 × 10^6/well Sf9 cells were counted for transfection and then amplified to obtain P3 ERK5 recombinant baculovirus. It was added to 2 × 10^6/mL Sf9 cells and incubated at 27 °C for 72 h on a shaker to express ERK5. Cells were lysed and supernatant was collected on a Ni-NTA for purification, and a 250 mM imidazole eluate was collected. […]
(§2) Calorimetric experiments were carried on an Affinity ITC (Waters, Shanghai) with 1 mM SKLB-D18 and 0.1 mM ERK1/2/5. […] The data were analyzed with the NanoAnalyze software employing a single binding site model. […]

ERK2 = ERK2 (Homo sapiens, UniProt P28482); assay: Isothermal titration calorimetry (ITC) assay; type: binding; conditions: 25 °C
Chain of ERK2 (P28482 whole entry): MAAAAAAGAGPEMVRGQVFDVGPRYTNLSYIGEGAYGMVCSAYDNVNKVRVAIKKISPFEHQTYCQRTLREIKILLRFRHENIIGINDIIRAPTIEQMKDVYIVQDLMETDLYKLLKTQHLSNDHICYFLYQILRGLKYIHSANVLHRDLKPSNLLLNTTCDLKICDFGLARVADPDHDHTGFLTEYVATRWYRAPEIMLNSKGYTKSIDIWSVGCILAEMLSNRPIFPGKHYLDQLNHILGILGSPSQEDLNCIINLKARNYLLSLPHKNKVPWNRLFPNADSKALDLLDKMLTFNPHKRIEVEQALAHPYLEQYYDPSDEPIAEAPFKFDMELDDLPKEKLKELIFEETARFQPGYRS
Protocol: as §1, §2

MDA-MB-231 cells = assay: MTT cell viability assay; type: cell-based
Protocol: MDA-MB-468 and MDA-MB-436 cells were cultured in Leibovitz’s L-15 medium supplemented with 10% fetal bovine serum. […] All of the cells were cultured at 37 °C in a humidified atmosphere containing 5% CO2.
(§3) Cancer cells were seeded in a density in 96-well plates (2 × 10^3 cells per well). After incubation for 24 h, cancer cells were treated with compounds (0–20 μM) for 72 h.

[1] = system: MDA-MB-231 cells with knockdown of ERK1/2/5; assay: MTT assay in ERK1/2/5 siRNA knockdown cells; type: cell-based; conditions: Homo sapiens, siRNA co-transfection
Protocol: (§4) The transient transfection processes were performed according to Lipofectamine 3000 transfection procedure details. The transfected cells were used for subsequent experiments after 48 h or 72 h.
as §3

[2] = system: MDA-MB-468 cells with knockdown of ERK1/2/5; assay: MTT assay in ERK1/2/5 siRNA knockdown cells; type: cell-based; conditions: Homo sapiens, siRNA co-transfection
Protocol: as §4, §3

Pharmacokinetic study = type: in vivo; conditions: rat, plasma, SD rats; for Vd: SD, 1 mg/kg
Protocol: SKLB-D18 was formulated using a composition of 10% DMSO, 10% Solutol, and 80% (20% HP-β-CD). SKLB-D18 was administered via intravenous injection (1 mg/kg) and intragastric administration (10 mg/kg) on SD rats. At various time points post-administration (0.25 h, 0.5 h, 1 h, 2 h, 4 h, 6 h, 8 h, 24 h), blood samples (0.2 mL) were collected and centrifuged (6800 × g, 6 min, 2–8 °C) to separate plasma. Plasma samples were precipitated with methanol, vortexed, and centrifuged (18,000 × g, 4 °C, 7 min); the supernatant was analyzed using LC-MS/MS. Parameters such as AUC0-t, AUC0-∞, Cmax, Tmax, and T1/2 were calculated using Phoenix WinNonlin 7.0.

MDA-MB-231 xenograft = MDA-MB-231 xenograft tumor growth inhibition; type: in vivo, nude mice (BALB/c-nu); conditions: 50 mg/kg (each drug), intragastric once daily, 16 days, by tumor weight
Protocol: All procedures were performed in accordance with the Laboratory Animals Welfare Act, the Guide for the Care and Use of Laboratory Animals and the Guidelines and Policies. The rodent experiment was approved by IACUC (Institutional Animal Care and Use Committee) in the Experimental Animal Ethics Committee of West China Hospital (Approval No. 2021672A). 48 female nude mice (BALB/c-nu, 5 weeks, 15–18 g, purchased from Beijing HFK Bio-Technology Co., LTD) were acclimatized for one week in an SPF-grade animal facility (ventilated, 20–25 °C, 50–60% humidity). […] When the tumor volume reached approximately 100 mm^3 (V = L × W^2/2), the mice were randomly divided into six groups (n = 8 per group): (1) Control group (normal saline); (2) 25 mg/kg SKLB-D18-treated group; (3) 50 mg/kg SKLB-D18-treated group; (4) 50 mg/kg BVD-523-treated group; (5) 50 mg/kg XMD8-92-treated group; (6) BVD-523 (50 mg/kg) and XMD8-92 (50 mg/kg) combined treatment group. Drugs were freshly prepared with 5% DMSO, 10% Solutol HS-15, and 85% normal saline on the day of administration. Intragastric administration occurred once daily at the same time for 16 consecutive days. And the body weight and tumor volume of mice were measured every three days. After the administration period, all nude mice were euthanized by cervical dislocation the next day. Tumors and vital organs (heart, liver, spleen, lung, kidney) were dissected, and tumors were weighed, then immediately fixed in 4% paraformaldehyde or stored in −80 °C.

MAPK2(h) = assay: Kinase profiling; type: biochemical, human; conditions: 1 μM
Protocol: 380 kinases inhibitory activities of SKLB-D18 were conducted by Eurofins Cerep SA. The result was illustrated by kinase tree (http://www.kinhub.org/kinmap/).

Chain of ERK1 (P27361 whole entry, the tested form may be a part): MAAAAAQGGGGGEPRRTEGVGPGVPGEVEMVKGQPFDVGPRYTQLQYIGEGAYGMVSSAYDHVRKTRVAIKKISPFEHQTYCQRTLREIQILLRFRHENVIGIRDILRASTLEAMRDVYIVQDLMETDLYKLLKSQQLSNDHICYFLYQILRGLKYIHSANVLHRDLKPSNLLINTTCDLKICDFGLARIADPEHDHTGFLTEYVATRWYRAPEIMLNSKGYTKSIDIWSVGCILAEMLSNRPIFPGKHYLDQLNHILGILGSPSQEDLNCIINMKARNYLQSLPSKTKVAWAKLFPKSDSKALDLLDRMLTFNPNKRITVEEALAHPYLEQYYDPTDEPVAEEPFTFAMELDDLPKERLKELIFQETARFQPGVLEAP

CN(C)Cc1cccc(Nc2ncc(Cl)c(-c3csc(C(=O)NN4CCOCC4)c3)n2)c1 [SKLB-D18, 4-(5-chloro-2-((3-((dimethylamino)methyl)phenyl)amino)pyrimidin-4-yl)-N-morpholinothiophene-2-carboxamide]
Kd (ERK1): 127 nM
Kd (ERK2): 210 nM
Anti-proliferative activity (10 μM, %) MDA-MB-231 (MDA-MB-231 cells; 10 μM): 93.44 ± 1.21%
IC50 (MDA-MB-231 cells; Homo sapiens, MDA-MB-231, read-out: IC50 MDA-MB-231, MTT, 72 h): 930 ± 110 nM
IC50 [1]: 14800 nM
IC50 [2]: 19800 nM
Vd (Pharmacokinetic study; iv, i.v. 1 mg/kg, read-out: Vss): 17 ± 0.568 L/kg
Vd (Pharmacokinetic study; iv, i.v. 1 mg/kg, read-out: Vz): 20.2 ± 1.38 L/kg
AUC(0-inf) (Pharmacokinetic study; iv, i.v. 1 mg/kg): 143 ± 6.6 ng·h/mL
AUC(0-t) (Pharmacokinetic study; iv, i.v. 1 mg/kg): 136 ± 5.73 ng·h/mL
Cmax (Pharmacokinetic study; iv, i.v. 1 mg/kg): 58.7 ± 7.22 ng/mL
half-life (Pharmacokinetic study; iv, i.v. 1 mg/kg): 2.01 ± 0.16 h
clearance (Pharmacokinetic study; iv, i.v. 1 mg/kg, read-out: CL (mL/(min·kg))): 117 ± 5.45 mL/min/kg
bioavailability (Pharmacokinetic study; oral, p.o. 10 mg/kg vs i.v. 1 mg/kg): 22.4%
AUC(0-inf) (Pharmacokinetic study; po, p.o. 10 mg/kg): 457 ng·h/mL
AUC(0-t) (Pharmacokinetic study; po, p.o. 10 mg/kg): 304 ng·h/mL
Cmax (Pharmacokinetic study; po, p.o. 10 mg/kg): 53.7 ng/mL
half-life (Pharmacokinetic study; po, p.o. 10 mg/kg): 3.71 h
tumor inhibition rate (MDA-MB-231 xenograft): 79.88%
Inhibition% (MAPK2(h)): 56%
